Measured values reported in patent publication US20260167619A2, “INDOLINE COMPOUNDS AND DERIVATIVES AS EGFR INHIBITORS” (BeOne Medicines I GmbH, priority 2020, published 2026).

Key:
BaF3-WT cells = BaF3-WT cells (Homo sapiens, UniProt P00533); test: Cell antiproliferation assay (CellTiter-Glo), BaF3-WT; assay type: cell-based; settings: 48 h treatment, read-out: BaF3-WT IC50
Protocol: (§1) BaF3 cells are treated with compounds diluted in 0.2% DMSO, dilution is done according to the following protocol: (1) make 500× stock solution in DMSO from 5 mM by 5-fold dilution, total 8 doses were included; (2) make 10× solution in cell culture medium by transferring 2 μl 500× stock solution into 98 μl medium; (3) 10 μl of 10× solution is added to cells and incubate for 48 h.
(§2) After 48 h treatment, add 30 μl CellTiter-Glo reagent[CellTiter-Glo® 2.0, (Promega, Cat #G9242)] to each well; seal the plate and incubate 2 min at room temperature on a plate shaker; Allow the plate to incubate at room temperature for 10 minutes to stabilize the luminescent signal. Record luminescence on BMG PheraStar with luminescence protocol.
(§3) The IC50 value of a compound can be obtained by fitting the following equation
(§4) Wherein, X and Y are known values, and IC50, Hillslope, Top and Bottom are the parameters obtained by fitting with software. Y is the inhibition percentage (calculated from the equation), X is the concentration of the compound; IC50 is the concentration of the compound when the 50% inhibition is reached. The smaller the IC50 value is, the stronger the inhibitory ability of the compound is. Vice versa, the higher the IC50 value is, the weaker the ability the inhibitory ability of the compound is; Hillslope represents the slope of the fitted curve, generally around 1 *; Bottom represents the minimum value of the curve obtained by data fitting, which is generally 0%±20%; Top represents the maximum value of the curve obtained by data fitting, which is generally 100%±20%. The experimental data were fitted by calculating and analyzing with Dotmatics data analysis software.

BaF3-Del_TM_CS cells = BaF3-Del_TM_CS cells (Homo sapiens, UniProt P00533, T790M/C797S, cells depend on it, form not given); test: Cell antiproliferation assay (CellTiter-Glo), BaF3-Del_TM_CS; assay type: cell-based; settings: 48 h treatment, read-out: BaF3-Del_TM_CS IC50
BaF3-Del_TM_CS cells, sequence (P00533 with tags, fused parts or gaps DEL746-750/T790M/C797S, form open): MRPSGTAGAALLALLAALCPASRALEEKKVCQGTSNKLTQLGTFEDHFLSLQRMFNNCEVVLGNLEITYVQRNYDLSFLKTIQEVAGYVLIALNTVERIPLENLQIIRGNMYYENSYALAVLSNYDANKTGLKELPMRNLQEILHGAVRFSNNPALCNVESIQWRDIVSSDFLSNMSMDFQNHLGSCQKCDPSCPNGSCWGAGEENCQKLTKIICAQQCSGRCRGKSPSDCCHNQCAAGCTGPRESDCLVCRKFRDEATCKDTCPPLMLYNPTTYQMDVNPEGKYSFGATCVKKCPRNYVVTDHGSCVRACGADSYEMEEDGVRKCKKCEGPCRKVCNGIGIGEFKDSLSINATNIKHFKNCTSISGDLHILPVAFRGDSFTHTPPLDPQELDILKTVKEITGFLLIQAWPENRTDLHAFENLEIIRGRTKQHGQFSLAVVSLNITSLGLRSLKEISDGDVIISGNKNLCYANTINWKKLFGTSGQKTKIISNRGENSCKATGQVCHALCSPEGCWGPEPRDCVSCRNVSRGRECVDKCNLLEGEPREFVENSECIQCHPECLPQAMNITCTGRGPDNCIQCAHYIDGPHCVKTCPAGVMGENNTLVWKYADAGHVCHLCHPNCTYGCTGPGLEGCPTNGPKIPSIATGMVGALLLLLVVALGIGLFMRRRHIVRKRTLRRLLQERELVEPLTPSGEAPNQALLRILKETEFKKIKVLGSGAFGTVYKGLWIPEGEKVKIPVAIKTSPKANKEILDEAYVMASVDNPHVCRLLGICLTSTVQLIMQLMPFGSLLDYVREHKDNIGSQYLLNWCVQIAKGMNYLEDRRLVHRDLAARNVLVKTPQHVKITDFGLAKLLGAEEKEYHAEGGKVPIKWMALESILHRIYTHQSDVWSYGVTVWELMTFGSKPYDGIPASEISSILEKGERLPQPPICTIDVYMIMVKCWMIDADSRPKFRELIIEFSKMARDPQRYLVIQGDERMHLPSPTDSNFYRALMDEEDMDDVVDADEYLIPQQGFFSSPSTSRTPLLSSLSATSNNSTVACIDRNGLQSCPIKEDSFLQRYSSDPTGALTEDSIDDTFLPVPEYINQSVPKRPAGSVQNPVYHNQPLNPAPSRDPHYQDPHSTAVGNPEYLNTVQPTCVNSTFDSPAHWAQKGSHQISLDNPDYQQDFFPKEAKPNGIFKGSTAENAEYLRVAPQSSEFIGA
Protocol: as §1, §2, §3, §4

[1] = molecular target: T1, EGFR(L858R_T790M_C797S) (aa695-end, Invitrogen) (Homo sapiens, UniProt P00533, C797S/L858R/T790M); test: Biochemical EGFR inhibition assay (TR-FRET), L858R/T790M/C797S mutant; settings: ATP at Km, 15 min pre-incubation, 60 min reaction; read-out: LR_TM_CS (Km ATP) IC50
T1 construct: purchased Invitrogen
T1 sequence (P00533 695-1210 T790M/C797S/L858R): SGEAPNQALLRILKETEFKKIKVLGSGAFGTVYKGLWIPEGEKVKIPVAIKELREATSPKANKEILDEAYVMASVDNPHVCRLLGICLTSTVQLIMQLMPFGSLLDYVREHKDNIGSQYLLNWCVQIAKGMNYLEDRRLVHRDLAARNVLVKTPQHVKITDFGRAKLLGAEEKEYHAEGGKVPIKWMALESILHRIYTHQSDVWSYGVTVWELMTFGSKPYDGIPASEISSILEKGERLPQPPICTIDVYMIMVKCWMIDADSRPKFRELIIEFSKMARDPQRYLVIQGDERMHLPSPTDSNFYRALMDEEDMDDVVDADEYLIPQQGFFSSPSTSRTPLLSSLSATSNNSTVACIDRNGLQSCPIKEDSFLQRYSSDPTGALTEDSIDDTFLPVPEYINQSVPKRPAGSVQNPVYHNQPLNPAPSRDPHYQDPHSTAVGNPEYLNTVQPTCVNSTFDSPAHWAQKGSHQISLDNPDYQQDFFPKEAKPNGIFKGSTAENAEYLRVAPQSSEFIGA
Procedure, shortened: (§5)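 Biotin-poly GT phosphorylation detected with Eu-cryptate anti-phosphotyrosine (PT66) and XL665-streptavidin after EDTA/KF stop, 665/620 nm ratio. Enzyme and compound preincubated 15 min, then ATP at Km added for 60 min at room temperature. Four-parameter logistic fit gives IC50.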

BaF3-LR_TM_CS cells = BaF3-LR_TM_CS cells (Homo sapiens, UniProt P00533, T790M/C797S/L858R, cells depend on it); test: Cell antiproliferation assay (CellTiter-Glo), BaF3-LR_TM_CS; assay type: cell-based; settings: 48 h treatment, read-out: BaF3-LR_TM_CS IC50
BaF3-LR_TM_CS cells, sequence (P00533 whole entry T790M/C797S/L858R): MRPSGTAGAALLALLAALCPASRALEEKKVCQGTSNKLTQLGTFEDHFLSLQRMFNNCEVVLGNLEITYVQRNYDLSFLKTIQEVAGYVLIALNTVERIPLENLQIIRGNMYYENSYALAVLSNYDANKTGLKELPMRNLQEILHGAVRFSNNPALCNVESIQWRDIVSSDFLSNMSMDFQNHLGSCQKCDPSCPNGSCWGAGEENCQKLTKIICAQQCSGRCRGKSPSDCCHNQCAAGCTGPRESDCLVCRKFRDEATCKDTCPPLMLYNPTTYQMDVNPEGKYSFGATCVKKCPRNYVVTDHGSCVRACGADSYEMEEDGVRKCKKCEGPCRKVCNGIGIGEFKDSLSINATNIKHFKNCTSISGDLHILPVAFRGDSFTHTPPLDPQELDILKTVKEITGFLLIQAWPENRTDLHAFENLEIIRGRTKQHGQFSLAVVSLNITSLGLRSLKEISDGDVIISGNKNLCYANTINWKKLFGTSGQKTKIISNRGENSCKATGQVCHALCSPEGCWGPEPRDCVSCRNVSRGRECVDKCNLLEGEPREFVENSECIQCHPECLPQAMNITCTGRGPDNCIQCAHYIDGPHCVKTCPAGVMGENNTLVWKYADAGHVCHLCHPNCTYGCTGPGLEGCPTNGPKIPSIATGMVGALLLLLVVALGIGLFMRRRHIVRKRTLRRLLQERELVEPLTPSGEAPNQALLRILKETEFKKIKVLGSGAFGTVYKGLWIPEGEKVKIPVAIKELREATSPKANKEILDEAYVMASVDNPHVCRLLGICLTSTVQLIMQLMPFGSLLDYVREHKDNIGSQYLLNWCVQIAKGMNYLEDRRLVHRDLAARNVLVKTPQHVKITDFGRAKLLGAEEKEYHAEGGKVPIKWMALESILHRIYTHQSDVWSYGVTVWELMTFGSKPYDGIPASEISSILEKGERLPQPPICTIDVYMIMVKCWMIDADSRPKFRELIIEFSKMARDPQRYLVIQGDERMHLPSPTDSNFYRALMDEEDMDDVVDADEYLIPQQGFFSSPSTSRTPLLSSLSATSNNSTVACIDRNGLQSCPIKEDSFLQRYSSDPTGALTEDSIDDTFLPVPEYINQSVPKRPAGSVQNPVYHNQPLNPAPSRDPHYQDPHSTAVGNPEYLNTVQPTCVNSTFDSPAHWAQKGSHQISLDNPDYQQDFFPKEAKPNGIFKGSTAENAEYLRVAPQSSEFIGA
Protocol: as §1, §2, §3, §4

[2] = molecular target: T2, EGFR (aa668-1210, Invitrogen) (Homo sapiens, UniProt P00533); test: Biochemical EGFR inhibition assay (TR-FRET), wild-type EGFR; settings: ATP at Km, 15 min pre-incubation, 60 min reaction; read-out: WT (Km ATP) IC50
T2 construct: EGFR (aa668-1210, Invitrogen); purchased Invitrogen
T2 sequence (P00533 668-1210): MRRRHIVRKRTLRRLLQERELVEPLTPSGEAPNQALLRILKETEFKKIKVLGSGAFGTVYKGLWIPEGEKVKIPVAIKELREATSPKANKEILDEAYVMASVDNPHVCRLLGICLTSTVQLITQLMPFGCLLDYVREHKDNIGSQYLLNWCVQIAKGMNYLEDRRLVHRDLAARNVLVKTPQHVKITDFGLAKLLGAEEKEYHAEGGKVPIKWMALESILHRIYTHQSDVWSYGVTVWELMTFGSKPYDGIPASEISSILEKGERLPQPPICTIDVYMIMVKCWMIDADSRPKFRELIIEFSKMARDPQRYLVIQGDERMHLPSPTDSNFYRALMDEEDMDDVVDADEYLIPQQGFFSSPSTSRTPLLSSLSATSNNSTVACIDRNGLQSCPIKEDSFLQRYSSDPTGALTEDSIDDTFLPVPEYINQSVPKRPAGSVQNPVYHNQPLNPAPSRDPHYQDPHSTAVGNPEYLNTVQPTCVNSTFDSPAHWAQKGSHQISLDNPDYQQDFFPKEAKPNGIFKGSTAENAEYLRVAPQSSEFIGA
Procedure, shortened: as §5

[3] = molecular target: EGFR(Dell9_T790M_C797S) (aa 669-1210, in house) (Homo sapiens, UniProt P00533, T790M/C797S, form not given); test: Biochemical EGFR inhibition assay (TR-FRET), Del19/T790M/C797S mutant; settings: ATP at Km, 15 min pre-incubation, 60 min reaction; read-out: Del_TM_CS (Km ATP) IC50
EGFR(Dell9_T790M_C797S) (aa 669-1210, in house), sequence (P00533 with tags, fused parts or gaps DEL746-750/T790M/C797S, form open): as the sequence (P00533 with tags, fused parts or gaps DEL746-750/T790M/C797S, form open) above
Procedure, shortened: as §5

SMILES | GI50 (BaF3-WT cells) [nM] | GI50 (BaF3-Del_TM_CS cells) [nM] | IC50 [1] [nM] | GI50 (BaF3-LR_TM_CS cells) [nM] | IC50 [2] [nM] | IC50 [3] [nM]
CCN1CCN(C2CCN(c3ccc(Nc4nc(Nc5cccc6c5N(S(C)(=O)=O)CC6)c5cn[nH]c5n4)cc3F)CC2)CC1 [Example 76, N^6-(4-(4-(4-ethylpiperazin-1-yl)piperidin-1-yl)-3-fluorophenyl)-N^4-(1-(methylsulfonyl)indolin-7-yl)-1H-pyrazolo[3,4-d]pyrimidine-4,6-diamine] | 987 | 90.5 | 1.3 | 350 | 0.6 | 0.88
CN1CCN(C2CCN(c3ccc(Nc4ncc(Br)c(Nc5cccc6c5N(S(C)(=O)=O)CC6)n4)c4c3CCO4)CC2)CC1 [Example 50, 5-bromo-N^2-(4-(4-(4-methylpiperazin-1-yl)piperidin-1-yl)-2,3-dihydrobenzofuran-7-yl)-N^4-(1-(methylsulfonyl)indolin-7-yl)pyrimidine-2,4-diamine] | 2730 | 19 | 1 | 176 | 14 | 0.63
CCCS(=O)(=O)N1CCc2cccc(Nc3nc(Nc4ccc(N5CCC(N6CCN(C)CC6)CC5)cc4OC)ncc3Cl)c21 [Example 6, 5-chloro-N^2-(2-methoxy-4-(4-(4-methylpiperazin-1-yl)piperidin-1-yl)phenyl)-N^4-(1-(propylsulfonyl)indolin-7-yl)pyrimidine-2,4-diamine] | 1850 | 233 | 1.8 | 221 | 8.1 | 5.1
COc1cc(N2CCC(N3CCN(C)CC3)CC2)c(C)cc1Nc1ncc(Cl)c(Nc2cccc3c2N(S(C)(=O)=O)CC3)n1 [Example 39, 5-chloro-N^2-(2-methoxy-5-methyl-4-(4-(4-methylpiperazin-1-yl)piperidin-1-yl)phenyl)-N^4-(1-(methylsulfonyl)indolin-7-yl)pyrimidine-2,4-diamine] | 500 | 4.54 | 0.28 | 11.4 | 0.36 | 0.35
COc1cc(N2CCC(N3CCN(C)CC3)CC2)ccc1Nc1ncc(Cl)c(Nc2ccc(Br)c3c2N(S(C)(=O)=O)CC3)n1 [Example 2, N^4-(4-bromo-1-(methylsulfonyl)indolin-7-yl)-5-chloro-N^2-(2-methoxy-4-(4-(4-methylpiperazin-1-yl)piperidin-1-yl)phenyl)pyrimidine-2,4-diamine] | 511 | 14.6 | 0.48 | 66.1 | 0.64 | 0.36
COc1cc(N2CCC(N3CCN(C)CC3)CC2)ccc1Nc1nc(Nc2cccc3c2N(S(C)(=O)=O)CC3)c2[nH]ccc2n1 [Example 71, N^2-(2-methoxy-4-(4-(4-methylpiperazin-1-yl)piperidin-1-yl)phenyl)-N^4-(1-(methylsulfonyl)indolin-7-yl)-5H-pyrrolo[3,2-d]pyrimidine-2,4-diamine] | 2210 | 920 | 143 | 1470 | 623 | 133
COc1cc(N2CCC(N3CCN(C)CC3)CC2)ccc1Nc1ncc(C)c(Nc2cccc3c2N(S(C)(=O)=O)CC3)n1 [Example 35, N^2-(2-methoxy-4-(4-(4-methylpiperazin-1-yl)piperidin-1-yl)phenyl)-5-methyl-N^4-(1-(methylsulfonyl)indolin-7-yl)pyrimidine-2,4-diamine] | 604 | 79.9 | 0.14 | 222 | 0.23 | 0.14
COc1cc(Nc2nc(Nc3cccc4c3N(S(C)(=O)=O)CC4)c3cc[nH]c3n2)ccc1N1CCC(N2CCN(C)CC2)CC1 [Example 81, N^2-(3-methoxy-4-(4-(4-methylpiperazin-1-yl)piperidin-1-yl)phenyl)-N^4-(1-(methylsulfonyl)indolin-7-yl)-7H-pyrrolo[2,3-d]pyrimidine-2,4-diamine] |  |  | 0.44 |  | 82.7 | 0.76
CN1CCN(C2CCN(c3ccc(Nc4nc(Nc5cccc6c5N(S(C)(=O)=O)CC6)c5cc[nH]c5n4)cc3Cl)CC2)CC1 [Example 80, N^2-(3-chloro-4-(4-(4-methylpiperazin-1-yl)piperidin-1-yl)phenyl)-N^4-(1-(methylsulfonyl)indolin-7-yl)-7H-pyrrolo[2,3-d]pyrimidine-2,4-diamine] |  |  | 0.7 |  | 40.4 | 0.85

Continued, values first:

GI50 (BaF3-WT cells) [nM] | GI50 (BaF3-Del_TM_CS cells) [nM] | IC50 [1] [nM] | GI50 (BaF3-LR_TM_CS cells) [nM] | IC50 [2] [nM] | IC50 [3] [nM] | SMILES
1960 | 60.8 | 4.8 | 105 | 417 | 7.1 | COc1cc(N2CCN(C)[C@H](C)C2)c(C)cc1Nc1nc(Nc2cccc3c2N(S(C)(=O)=O)CC3)c2cc[nH]c2n1 [Example 107, (R)—N2-(4-(3,4-dimethylpiperazin-1-yl)-2-methoxy-5-methylphenyl)-N4-(1-(methylsulfonyl)indolin-7-yl)-7H-pyrrolo[2,3-d]pyrimidine-2,4-diamine]
1860 | 707 | 42 | 1040 | 7290 | 37 | CCN1CCN(C2CCN(c3ccc(Nc4nc(Nc5ccc(F)c6c5N(S(C)(=O)=O)CC65CCC5)c5cc[nH]c5n4)cc3F)CC2)CC1 [Example 83, N^2-(4-(4-(4-ethylpiperazin-1-yl)piperidin-1-yl)-3-fluorophenyl)-N^4-(4′-fluoro-1′-(methylsulfonyl)spiro[cyclobutane-1,3′-indolin]-7′-yl)-7H-pyrrolo[2,3-d]pyrimidine-2,4-diamine]
949 | 12.8 | 0.42 | 40.5 | 17 | 0.94 | COc1cc(N2CCC(N3CCN(C)CC3)CC2)c(C)cc1Nc1nc(Nc2cccc3c2N(S(C)(=O)=O)CC3)c2cc[nH]c2n1 [Example 91, N^2-(2-methoxy-5-methyl-4-(4-(4-methylpiperazin-1-yl)piperidin-1-yl)phenyl)-N^4-(1-(methylsulfonyl)indolin-7-yl)-7H-pyrrolo[2,3-d]pyrimidine-2,4-diamine]
1490 | 128 | 3.4 | 195 | 332 | 5.3 | COc1cc(C2CCC(N(C)C)CC2)c(C)cc1Nc1nc(Nc2cccc3c2N(S(C)(=O)=O)CC3)c2cc[nH]c2n1 (stereo not drawn) [Example 104, N^2-(4-(4-(dimethylamino)cyclohexyl)-2-methoxy-5-methylphenyl)-N^4-(1-(methylsulfonyl)indolin-7-yl)-7H-pyrrolo[2,3-d]pyrimidine-2,4-diamine]
640 | 10.9 | 1.1 | 84.8 | 29 | 1.5 | CCc1cc(Nc2nc(Nc3cccc4c3N(S(C)(=O)=O)CC4)c3cc[nH]c3n2)c(OC)cc1N1CCC(N2CCN(C)CC2)CC1 [Example 94, N^2-(5-ethyl-2-methoxy-4-(4-(4-methylpiperazin-1-yl)piperidin-1-yl)phenyl)-N^4-(1-(methylsulfonyl)indolin-7-yl)-7H-pyrrolo[2,3-d]pyrimidine-2,4-diamine]
 |  | 5.1 |  | 572 | 10.7 | COc1cc(N2C[C@@H]3C[C@H]2CN3C)ccc1Nc1nc(Nc2cccc3c2N(S(C)(=O)=O)CC3)c2cc[nH]c2n1 [Example 110, N^2-(2-methoxy-4-((1S,4S)-5-methyl-2,5-diazabicyclo[2.2.1]heptan-2-yl)phenyl)-N^4-(1-(methylsulfonyl)indolin-7-yl)-7H-pyrrolo[2,3-d]pyrimidine-2,4-diamine]
